Counter-ions that a name gives are not always drawn. Like-named read-outs stand apart in the source and are kept apart here.
Legend:
[1] = target: T1, TAK1-TAB1 fusion protein (Homo sapiens, UniProt O43318); assay: TAK1 biochemical assay (AlphaScreen, GST-MAP2K7 substrate)
T1 construct: purchased Carna
T1 sequence (O43318 with tags, fused parts or gaps limits assumed): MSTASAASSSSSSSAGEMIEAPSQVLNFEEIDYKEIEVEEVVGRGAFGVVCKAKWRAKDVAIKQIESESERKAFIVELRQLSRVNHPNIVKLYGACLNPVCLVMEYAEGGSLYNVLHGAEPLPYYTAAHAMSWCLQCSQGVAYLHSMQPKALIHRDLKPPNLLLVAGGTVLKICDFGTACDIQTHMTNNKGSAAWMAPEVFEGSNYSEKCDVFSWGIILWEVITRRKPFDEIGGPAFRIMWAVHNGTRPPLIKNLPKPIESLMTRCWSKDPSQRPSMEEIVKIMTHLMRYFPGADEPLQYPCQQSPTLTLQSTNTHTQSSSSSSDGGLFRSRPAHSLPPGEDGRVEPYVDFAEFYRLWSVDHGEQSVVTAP

[2] = tested on: pJNK in HCT-116 cells; assay: Phospho-JNK (Thr183/Tyr185) Meso Scale ELISA assay, TNFα-stimulated HCT-116 cells; assay type: cell-based; settings: Homo sapiens, read-out: mean HCT-116 pJNK ELISA IC50 (Col. B)
In short: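 HCT-116 cells in 1% FCS medium were pretreated with compound for 4 hrs at 37° C, then stimulated with TNFα at 10 ng/mL final for 10 minutes. Lysates were taken in ice-cold lysis buffer with phosphatase and protease inhibitors, and phospho-JNK (Thr183/Tyr185) was measured by Meso Scale ELISA.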

[3] = tested on: p-p38 in HCT-116 cells; assay: Phospho-p38 Meso Scale ELISA assay, TNFα-stimulated HCT-116 cells; assay type: cell-based; settings: Homo sapiens, read-out: mean HCT-116 p-p38 ELISA IC50 (Col. C)
In short: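 HCT-116 cells in 1% FCS medium for 2 h, then compound for 4 h at 37° C, then TNFα at 10 ng/mL final for 10 min. Lysates captured overnight at 4° C and phospho-p38 quantified by Meso Scale electrochemiluminescence ELISA.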

[4] = TAK1-TAB1 fusion protein, GST-MAP2K7 substrate, read-out: mean TAK1 IC50 (Col. A)

Structure (SMILES)	IC50 [1, 4] [nM]	IC50 [2] [nM]	IC50 [3] [nM]	IC50 [1] [nM]
CC(=O)N1CCC(n2cc(-c3cnc(N)c4oc(-c5c[nH]c6cc(F)ccc56)cc34)cn2)CC1 [Example 213, 1-(4-{4-[7-amino-2-(6-fluoro-1H-indol-3-yl)furo[2,3-c]pyridin-4-yl]-1H-pyrazol-1-yl}piperidin-1-yl)ethanone]	100 to 1000	100 to 1000	100 to 1000	
CC(=O)N1CCC(n2cc(-c3cnc(N)c4oc(-c5ccccc5CC#N)cc34)cn2)CC1 [Example 215, (2-{4-[1-(1-acetylpiperidin-4-yl)-1H-pyrazol-4-yl]-7-aminofuro[2,3-c]pyridin-2-yl}phenyl)acetonitrile]	100 to 1000	100 to 1000	100 to 1000	
CSc1ccccc1-c1cc2c(-c3cnn(C4CCN(C(C)=O)CC4)c3)cnc(N)c2o1 [Example 216, 1-[4-(4-{7-amino-2-[2-(methylsulfanyl)phenyl]furo[2,3-c]pyridin-4-yl}-1H-pyrazol-1-yl)piperidin-1-yl]ethanone]	100 to 1000	100 to 1000	100 to 1000	
CCSc1ccccc1-c1cc2c(-c3cnn(C4CCN(C(C)=O)CC4)c3)cnc(N)c2o1 [Example 217]	100 to 1000	100 to 1000	100 to 1000	
CC(=O)N1CCC(n2cc(-c3cnc(N)c4oc(-c5cccc([N+](=O)[O-])c5C)cc34)cn2)CC1 [Example 218, 1-(4-{4-[7-amino-2-(2-methyl-3-nitrophenyl)furo[2,3-c]pyridin-4-yl]-1H-pyrazol-1-yl}piperidin-1-yl)ethanone]	< 100	100 to 1000	100 to 1000	
CC(=O)N1CCC(n2cc(-c3cnc(N)c4oc(-c5csc6ccccc56)cc34)cn2)CC1 [Example 219, 1-(4-{4-[7-amino-2-(1-benzothiophen-3-yl)furo[2,3-c]pyridin-4-yl]-1H-pyrazol-1-yl}piperidin-1-yl)ethanone]	100 to 1000	100 to 1000	100 to 1000	
CC(=O)N1CCC(n2cc(-c3cnc(N)c4oc(-c5cccn6ccnc56)cc34)cn2)CC1 [Example 221, 1-(4-{4-[7-amino-2-(imidazo[1,2-a]pyridin-8-yl)furo[2,3-c]pyridin-4-yl]-1H-pyrazol-1-yl}piperidin-1-yl)ethanone bis(trifluoroacetate)]	100 to 1000	100 to 1000	100 to 1000	
CC(=O)N1CCC(n2cc(-c3cnc(N)c4oc(-c5c[nH]c6cc(C#N)ccc56)cc34)cn2)CC1 [Example 222, 3-{4-[1-(1-acetylpiperidin-4-yl)-1H-pyrazol-4-yl]-7-aminofuro[2,3-c]pyridin-2-yl}-1H-indole-6-carbonitrile]	100 to 1000	100 to 1000	100 to 1000	
CC(=O)N1CCC(n2cc(-c3cnc(N)c4oc(-c5cccc6nnsc56)cc34)cn2)CC1 [Example 224, 1-(4-{4-[7-amino-2-(1,2,3-benzothiadiazol-7-yl)furo[2,3-c]pyridin-4-yl]-1H-pyrazol-1-yl}piperidin-1-yl)ethanone diformate salt]	< 100	< 100	< 100	
CC(=O)N1CCC(n2cc(-c3cnc(N)c4oc(-c5cccc6cnsc56)cc34)cn2)CC1 [Example 226, 1-(4-{4-[7-amino-2-(1,2-benzothiazol-7-yl)furo[2,3-c]pyridin-4-yl]-1H-pyrazol-1-yl}piperidin-1-yl)ethanone]	< 100	< 100	< 100	
CC(=O)N1CCC(n2cc(-c3cnc(N)c4oc(-c5cccc6c5CC(=O)N6)cc34)cn2)CC1 [Example 227, 4-{4-[1-(1-acetylpiperidin-4-yl)-1H-pyrazol-4-yl]-7-aminofuro[2,3-c]pyridin-2-yl}-1,3-dihydro-2H-indol-2-one]	100 to 1000	1000 to 10000	1000 to 10000	
Nc1ncc(-c2cnn([C@H]3CC[C@H](O)CC3)c2)c2cc(-c3cccc4nnsc34)oc12 [Example 229, trans-4-{4-[7-amino-2-(1,2,3-benzothiadiazol-7-yl)furo[2,3-c]pyridin-4-yl]-1H-pyrazol-1-yl}cyclohexanol]		< 100	< 100	< 100
Nc1ncc(-c2cnn([C@H]3CC[C@H](O)CC3)c2)c2cc(-c3ccc(F)c4cnsc34)oc12 [Example 230, trans-4-{4-[7-amino-2-(4-fluoro-1,2-benzothiazol-7-yl)furo[2,3-c]pyridin-4-yl]-1H-pyrazol-1-yl}cyclohexanol diformate salt]	100 to 1000	100 to 1000	100 to 1000	
Nc1ncc(-c2cnn([C@H]3CC[C@H](O)CC3)c2)c2cc(-c3csc4cnccc34)oc12 [Example 233, trans-4-{4-[7-amino-2-(thieno[2,3-c]pyridin-3-yl)furo[2,3-c]pyridin-4-yl]-1H-pyrazol-1-yl}cyclohexanol]	< 100	< 100	< 100	
Nc1ncc(-c2cnn([C@H]3CC[C@H](O)CC3)c2)c2cc(-c3cccc4cnsc34)oc12 [Example 234, trans-4-{4-[7-amino-2-(1,2-benzothiazol-7-yl)furo[2,3-c]pyridin-4-yl]-1H-pyrazol-1-yl}cyclohexanol]	< 100	< 100	100 to 1000	
CC(=O)N1CCC(n2cc(-c3cnc(N)c4oc(-c5ccc6[nH]nc(C#N)c6c5)cc34)cn2)CC1 [Example 236, 5-{4-[1-(1-acetylpiperidin-4-yl)-1H-pyrazol-4-yl]-7-aminofuro[2,3-c]pyridin-2-yl}-1H-indazole-3-carbonitrile]	100 to 1000	1000 to 10000	> 10000	
Nc1ncc(-c2cnn([C@H]3CC[C@H](O)CC3)c2)c2cc(-c3cc(F)cc4cnsc34)oc12 [Example 238, trans-4-{4-[7-amino-2-(5-fluoro-1,2-benzothiazol-7-yl)furo[2,3-c]pyridin-4-yl]-1H-pyrazol-1-yl}cyclohexanol diformate salt]	100 to 1000	< 100	100 to 1000	
Nc1ncc(-c2cnn([C@H]3CC[C@H](O)CC3)c2)c2cc(-c3c(F)ccc4cnsc34)oc12 [Example 240, trans-4-{4-[7-amino-2-(6-fluoro-1,2-benzothiazol-7-yl)furo[2,3-c]pyridin-4-yl]-1H-pyrazol-1-yl}cyclohexanol diformate salt]	100 to 1000	< 100	100 to 1000	
COc1cc2c(-c3cc4c(-c5cnn(C6CCN(C(C)=O)CC6)c5)cnc(N)c4o3)csc2cn1 [Example 243, 1-(4-{4-[7-amino-2-(5-methoxythieno[2,3-c]pyridin-3-yl)furo[2,3-c]pyridin-4-yl]-1H-pyrazol-1-yl}piperidin-1-yl)ethanone]	1000 to 10000	100 to 1000	1000 to 10000	
Nc1ncc(-c2cnn([C@H]3CC[C@H](O)CC3)c2)c2cc(-c3csc4cnc(F)cc34)oc12 [Example 249, trans-4-{4-[7-amino-2-(5-fluorothieno[2,3-c]pyridin-3-yl)furo[2,3-c]pyridin-4-yl]-1H-pyrazol-1-yl}cyclohexanol]	< 100	< 100	< 100	
CC(=O)N1CCC(n2cc(-c3cnc(N)c4oc(-c5c(C)sc6cnccc56)cc34)cn2)CC1 [Example 253, 1-(4-{4-[7-amino-2-(2-methylthieno[2,3-c]pyridin-3-yl)furo[2,3-c]pyridin-4-yl]-1H-pyrazol-1-yl}piperidin-1-yl)ethanone trifluoroacetate]	< 100	100 to 1000	1000 to 10000	
CC(=O)N1CCC(n2cc(-c3cnc(N)c4oc(-c5csc6cncc(F)c56)cc34)cn2)CC1 [Example 254, 1-(4-{4-[7-amino-2-(4-fluorothieno[2,3-c]pyridin-3-yl)furo[2,3-c]pyridin-4-yl]-1H-pyrazol-1-yl}piperidin-1-yl)ethanone trifluoroacetic Acid Salt]	< 100	100 to 1000	100 to 1000	
CC(=O)N1CCC(n2cc(-c3cnc(N)c4oc(-c5csc6cncnc56)cc34)cn2)CC1 [Example 260, 1-(4-{4-[7-amino-2-(thieno[3,2-d]pyrimidin-7-yl)furo[2,3-c]pyridin-4-yl]-1H-pyrazol-1-yl}piperidin-1-yl)ethanone]	100 to 1000	1000 to 10000	1000 to 10000	
CC(=O)N1CCC(n2cc(-c3cnc(N)c4oc(-c5cncc6cnsc56)cc34)cn2)CC1 [Example 262, 1-(4-{4-[7-amino-2-([1,2]thiazolo[4,5-c]pyridin-7-yl)furo[2,3-c]pyridin-4-yl]-1H-pyrazol-1-yl}piperidin-1-yl)ethanone Diformate Salt]	100 to 1000	100 to 1000	100 to 1000	
Nc1ncc(-c2cnn([C@H]3CC[C@H](O)CC3)c2)c2cc(-c3cncc4cnsc34)oc12 [Example 267, trans-4-{4-[7-amino-2-([1,2]thiazolo[4,5-c]pyridin-7-yl)furo[2,3-c]pyridin-4-yl]-1H-pyrazol-1-yl}cyclohexanol Diformate Salt]	100 to 1000	< 100	100 to 1000	

From patent US8378104B2 (OSI Pharmaceuticals, LLC, priority 2010, dated 2013)
